Holding throughout (experiment): inhibition of tumour cell growth, NCI panel, 48 h
Test [1] concerns SNB-19.
The subject of test [2] is Malme-3M.
The test system of test [3] is DMS-273.
The subject of test [4] is IGROV-1.
For test [5], the system named is DLD-1.
The test system of test [6] is SF-268.
For test [7], the system named is DMS-114.
The test system of test [8] is SK-OV-3.
In test [9] the test system is 786-0.
Test [10] concerns COLO 205.
The subject of test [11] is CCRF-CEM.
Test [12] relates to LOX IMVI.
In test [13] the test system is UO-31.
Test [14] has as its system HT-29.
The subject of test [15] is SR.
For test [16], the system named is NCI-H226.

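Test compounds were applied to cells in 96-well plates for 48 hours at 5 doses. GI50 marks 50% less growth.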 The source made the active and inactive calls. No stated cut-off is given here; in the data, active = GI50 up to about 1.1 µM and inactive = higher.

As to `O=C(O)CCC(NC(=O)c1ccccc1)C(=O)O` (stereo not given), the GI50 in test [1], in test [2], in test [3], in [4], in test [5] and in test [6] was > 100 µM (inactive) throughout. Moreover, the GI50 was > 100 µM (inactive) in test [7]; > 100 µM (inactive) in test [8]; > 100 µM (inactive) in test [9]; 52.1 µM (inactive) in test [10]; > 100 µM (inactive) in test [11]; > 100 µM (inactive) in test [12]. Moreover, the GI50 in test [13], in [14] and in test [15] was > 100 µM (inactive) each time.
Take `COc1ccccc1/C=C1\CCC(CNc2ccc(Cl)cc2)C1=O` (stereo not given): the GI50 in test [16] is 14 µM (inactive); in test [1] it was 11.8 µM (inactive); in test [2], 14.5 µM (inactive); in test [3], 1.74 µM (inactive); in [4], 5.83 µM (inactive); in test [5], 1.31 µM (inactive). Further, the GI50 in test [6] was 4.86 µM (inactive); in [7] it was 4.08 µM (inactive); in [8], 1.73 µM (inactive); in [9], 10.5 µM (inactive); in test [10], 2.39 µM (inactive); in [11], 1.68 µM (inactive). The GI50 is 0.254 µM (active) in test [12], 3.18 µM (inactive) in test [13], 2.2 µM (inactive) in [14] and 1.76 µM (inactive) in [15].
Consider `N#Cc1c([N+](=O)[O-])cc(C(F)(F)F)cc1[N+](=O)[O-]`, for which the GI50 was 21.6 µM (inactive) in [16]; 18.3 µM (inactive) in test [1]; 8.2 µM (inactive) in test [2]; 4.49 µM (inactive) in test [3]; 5.65 µM (inactive) in [4]; 3.87 µM (inactive) in test [5]. The GI50 in test [6] was 13.1 µM (inactive); in [7] it was 1.88 µM (inactive); in test [8] it was 19.1 µM (inactive); in test [9], 6.14 µM (inactive); in test [10], 4.88 µM (inactive); in test [11] it was 1.09 µM (active). Also, the GI50 in test [12] is 2.64 µM (inactive); in [13] it was 19.2 µM (inactive); in test [14], 2.96 µM (inactive); in test [15] it was 2.16 µM (inactive).
For `COC(=O)C(CC1=C(O)Nc2ccccc2N1)/C(=N/NC(N)=O)C(=O)Nc1ccccc1C` (stereo not given), the GI50 in [16] was > 100 µM (inactive); in test [1], > 100 µM (inactive); in test [2], > 100 µM (inactive); in [3], 17 µM (inactive); in test [4], > 100 µM (inactive); in test [5], 41.4 µM (inactive). Besides, the GI50 is 16.5 µM (inactive) in test [6]; 12.9 µM (inactive) in test [7]; > 100 µM (inactive) in test [8]; > 100 µM (inactive) in test [9]; 28.5 µM (inactive) in test [10]; 21.7 µM (inactive) in test [11]. Further, the GI50 in test [12] was 17.8 µM (inactive); in [13], > 100 µM (inactive); in [14] it was 66.5 µM (inactive); in test [15], 20.8 µM (inactive).
As for `Cn1c2cccc3nnc4cccc(c4c32)n1C`, the GI50 is 45.8 µM (inactive) in test [16]; > 100 µM (inactive) in test [1]; > 100 µM (inactive) in [2]; > 100 µM (inactive) in test [3]; > 100 µM (inactive) in test [4]; > 100 µM (inactive) in [5]. Moreover, the GI50 in [6], in [7], in test [9], in test [10], in test [11] and in test [12] was > 100 µM (inactive) each time. Besides, the GI50 in test [13] and in [14] was > 100 µM (inactive) throughout.
Regarding `ON1CCc2c([nH]c3ccccc23)C1c1ccc(Cl)cc1` (stereo not given), the GI50 was 20.3 µM (inactive) in test [16]; 29 µM (inactive) in test [1]; 29.4 µM (inactive) in test [2]; 31.3 µM (inactive) in test [3]; 25.2 µM (inactive) in test [5]; 33 µM (inactive) in test [6]. The GI50 in test [7] is 19.4 µM (inactive); in test [8], 46.7 µM (inactive); in test [9], 32.1 µM (inactive); in [10] it was 32.9 µM (inactive); in test [11], 18.2 µM (inactive); in [12], 18.8 µM (inactive). In addition, the results for the GI50 in [13], in test [14] and in test [15] were 25.8 µM (inactive), 17 µM (inactive) and 20.3 µM (inactive), respectively.
Consider `O=C(N/N=C(\C1=Nc2ccc(Cl)cc2NC1O)C(O)/C=C/c1ccccc1)c1ccncc1` (stereo not given), for which the GI50 in [16], in test [1], in test [2], in test [3], in test [4] and in [5] was > 100 µM (inactive) in each case. Moreover, the GI50 in [6], in test [7], in [8], in test [9], in [10] and in [11] was > 100 µM (inactive) in each case. The GI50 in [12] is > 100 µM (inactive); in test [13], 30.8 µM (inactive); in test [14], > 100 µM (inactive); in [15], > 100 µM (inactive).
In the case of `Cc1ccc(C)c(N2C/C(=N\NC(=O)CC#N)C(c3nc4ccccc4s3)C(=O)C2=O)c1` (stereo not given), the GI50 in [16], in test [1], in test [2], in [3], in test [4] and in [5] was > 100 µM (inactive) in each case. The GI50 in [6], in test [7], in test [8], in test [9], in test [10] and in [11] was > 100 µM (inactive) throughout. Further, the GI50 in test [13], in [14] and in [15] was > 100 µM (inactive) each time.
Take `O=C1c2ccccc2C(=O)N1CCn1ccc(NC(c2ccccc2)(c2ccccc2)c2ccccc2)nc1=O`: the GI50 in test [16] was 18.7 µM (inactive); in test [1], 25.2 µM (inactive); in test [2] it was 20.3 µM (inactive); in test [3], 17.3 µM (inactive); in test [4], 22.2 µM (inactive); in test [5], 19.1 µM (inactive). Also, the GI50 in test [6] is 19.2 µM (inactive); in test [7], 18.4 µM (inactive); in [8], 43.8 µM (inactive); in [9], 32 µM (inactive); in test [10] it was 17.6 µM (inactive); in [11], 20.1 µM (inactive). Besides, the GI50 in test [12] was 17.1 µM (inactive); in [13] it was 21.2 µM (inactive); in test [14] it was 16.8 µM (inactive).
In the case of `NC(=O)N/N=C/C(=C/Nc1ccccc1)[N+](=O)[O-]`, the GI50 in test [1], in test [3], in [4], in test [5], in test [6] and in test [7] was > 100 µM (inactive) in each case. Moreover, the GI50 in test [8], in [9], in test [10], in [11], in test [12] and in test [13] was > 100 µM (inactive) each time. Further, the GI50 in [14] and in test [15] was > 100 µM (inactive) each time.
For `Cc1cccc(C)c1NC(=O)C1=NC(=S)NC(c2ccccc2)C1c1nc2ccccc2s1` (stereo not given), the GI50 in test [16], in test [1], in [2], in test [3], in [4] and in test [5] was > 100 µM (inactive) each time. The GI50 in test [6], in test [7], in test [8], in test [9], in test [10] and in [11] was > 100 µM (inactive) each time. For the same compound, the GI50 in test [13], in [14] and in test [15] was > 100 µM (inactive) throughout.
Regarding `CC(=O)O[C@H]1[C@H](O[C@H]2CC[C@]34C[C@]35CC[C@]3(C)[C@@H]([C@@]6(C)CC[C@@H](C(C)(C)O)O6)[C@@H](O)C[C@@]3(C)[C@@H]5C[C@H](O[C@@H]3O[C@H](CO)[C@@H](O)[C@H](O)[C@H]3O)[C@H]4C2(C)C)OC[C@@H](O)[C@@H]1O`, the GI50 in test [16] was > 100 µM (inactive); in [1] it was > 100 µM (inactive); in [2], > 100 µM (inactive); in test [3], 44.6 µM (inactive); in test [4], > 100 µM (inactive); in [5] it was 71.1 µM (inactive). For the same compound, the GI50 was > 100 µM (inactive) in test [6]; 66.2 µM (inactive) in test [7]; > 100 µM (inactive) in test [8]; 42.6 µM (inactive) in [9]; 46.8 µM (inactive) in test [10]; 31.6 µM (inactive) in test [11]. The values for the GI50 in test [12], in [13] and in test [14] were 44 µM (inactive), > 100 µM (inactive) and 85.5 µM (inactive), respectively.
Consider `CC(=O)Oc1ccccc1` [ACETIC ACID PHENYL ESTER], for which the GI50 in test [16], in test [1], in test [2], in [3], in [4] and in [5] was > 100 µM (inactive) each time. Also, the GI50 in test [6], in test [7], in [9], in test [11], in test [12] and in test [13] was > 100 µM (inactive) each time. Besides, the GI50 in test [14] was > 100 µM (inactive).

Source of the values: ChEMBL document CHEMBL1201862, “PubChem BioAssay data set” (2004).
